From ChEMBL document CHEMBL1201862, “PubChem BioAssay data set” (2004)
The source made the active and inactive calls.

Experiments:
[1] = tested on: Streptococcus; experiment: GAS UMAA2166 growth inhibition – luminescence, BacTiterGlo, counter-screen for streptokinase expression inhibitor project, dose response (AID 1915); format: functional, organism-based;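 further: potency for reduction of bacterial viability or growth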
[2] = target: T1, Streptokinase A (Streptococcus pyogenes serotype M1, UniProt P10520); experiment: viability-normalized secreted streptokinase activity reduction – plasminogen activation absorbance, OD405, dose response (AID 1914); format: functional, Streptococcus pyogenes M1 GAS;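 further: secreted streptokinase activity via plasminogen activation per viability signal from cell pellet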
T1 sequence (P10520 whole entry): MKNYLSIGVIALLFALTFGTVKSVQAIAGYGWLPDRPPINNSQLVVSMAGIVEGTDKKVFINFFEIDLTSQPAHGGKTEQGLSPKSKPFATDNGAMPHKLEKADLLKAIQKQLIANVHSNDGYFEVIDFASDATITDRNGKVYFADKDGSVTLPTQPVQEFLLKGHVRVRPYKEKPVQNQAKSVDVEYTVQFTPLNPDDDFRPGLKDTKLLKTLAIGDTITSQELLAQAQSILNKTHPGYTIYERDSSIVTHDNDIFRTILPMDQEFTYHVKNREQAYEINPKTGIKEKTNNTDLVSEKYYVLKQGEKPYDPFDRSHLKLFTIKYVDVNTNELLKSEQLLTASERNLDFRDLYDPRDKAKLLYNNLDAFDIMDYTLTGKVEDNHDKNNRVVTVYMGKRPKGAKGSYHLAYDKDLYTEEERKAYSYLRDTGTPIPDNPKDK

[3] = target: G-protein coupled receptor 35 (Homo sapiens, UniProt Q9HC97); experiment: inhibition of zaprinast-stimulated GPR35 beta-arrestin translocation – imaging, U2OS, beta-arrestin-GFP, zaprinast agonist, primary screen (AID 2058); format: functional;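 further: antagonist potency meaning inhibition of agonist-induced arrestin redistribution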
[4] = tested on: Streptococcus sp. 'group A'; experiment: Streptococcus pyogenes SK(-)GAS viability under kanamycin – luminescence, BacTiterGlo, confirmation, counter-screen for streptokinase expression inhibitor project, dose response (AID 1900); format: functional, organism-based
[5] = target: X-box-binding protein 1 (Homo sapiens, UniProt P17861); format: functional, Cricetulus griseus;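 further: confirmatory dose-response counter-screen serving a CHOP assay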
[6] = target: Hexokinase HKDC1 (Homo sapiens, UniProt Q2TB90); experiment: inhibition of HKDC1 glucose phosphorylation – biochemical, W721R variant, dose response (AID 504729); format: functional
[7] = viability loss in THP-1 monocytes – THP-1 cells, cytotoxicity control for Vif-APOBEC3G degradation inhibitor project, dose response (AID 1117359); format: functional; details: THP-1
[8] = target: Glutathione-S-transferase (Schistosoma japonicum, UniProt Q26513); experiment: GST-antibody interaction or FRET quenching – biochemical, TR-FRET, artefact control for Vif-APOBEC3G degradation inhibitor project, dose response (AID 1117362); format: functional
[9] = target: C-C chemokine receptor type 6 (Homo sapiens, UniProt P51684); experiment: antagonism of CCR6 beta-arrestin recruitment – cell-based, luminescent beta-arrestin readout, dose response (AID 504728); format: functional
[10] = target: Beta-galactosidase (Escherichia coli, UniProt Q8VNN2); experiment: detection-enzyme interference by beta-gal modulators – biochemical, E. coli enzyme, set 3, artefact control for CCR6 antagonist project, dose response (AID 504712); format: functional
Sequence of Beta-galactosidase (Q8VNN2 whole entry): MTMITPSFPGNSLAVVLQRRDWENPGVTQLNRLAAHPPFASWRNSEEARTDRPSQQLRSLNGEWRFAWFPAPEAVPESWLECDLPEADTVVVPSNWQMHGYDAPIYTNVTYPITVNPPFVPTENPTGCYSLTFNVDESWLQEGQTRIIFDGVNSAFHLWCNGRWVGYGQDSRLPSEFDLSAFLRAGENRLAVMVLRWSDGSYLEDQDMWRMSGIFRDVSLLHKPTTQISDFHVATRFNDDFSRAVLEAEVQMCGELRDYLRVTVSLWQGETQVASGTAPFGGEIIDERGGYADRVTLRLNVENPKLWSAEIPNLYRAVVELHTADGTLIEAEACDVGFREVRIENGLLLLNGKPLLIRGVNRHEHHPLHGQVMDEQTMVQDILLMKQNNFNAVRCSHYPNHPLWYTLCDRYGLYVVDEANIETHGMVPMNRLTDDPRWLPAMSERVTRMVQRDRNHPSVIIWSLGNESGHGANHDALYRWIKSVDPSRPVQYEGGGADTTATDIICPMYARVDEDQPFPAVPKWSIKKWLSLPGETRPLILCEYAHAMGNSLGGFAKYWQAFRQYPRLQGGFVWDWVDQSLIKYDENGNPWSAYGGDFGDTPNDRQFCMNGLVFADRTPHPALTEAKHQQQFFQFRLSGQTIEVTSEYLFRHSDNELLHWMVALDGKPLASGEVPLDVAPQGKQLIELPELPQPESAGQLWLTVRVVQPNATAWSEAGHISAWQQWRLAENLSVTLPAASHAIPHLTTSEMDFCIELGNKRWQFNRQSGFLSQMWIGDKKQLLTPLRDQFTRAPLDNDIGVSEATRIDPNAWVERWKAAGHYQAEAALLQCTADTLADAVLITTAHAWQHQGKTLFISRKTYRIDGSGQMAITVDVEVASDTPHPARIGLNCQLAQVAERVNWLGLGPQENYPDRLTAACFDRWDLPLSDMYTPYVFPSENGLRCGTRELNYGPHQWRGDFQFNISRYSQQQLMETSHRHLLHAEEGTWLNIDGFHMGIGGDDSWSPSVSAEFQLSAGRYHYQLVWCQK

Sequence of C-C chemokine receptor type 6 (P51684 whole entry): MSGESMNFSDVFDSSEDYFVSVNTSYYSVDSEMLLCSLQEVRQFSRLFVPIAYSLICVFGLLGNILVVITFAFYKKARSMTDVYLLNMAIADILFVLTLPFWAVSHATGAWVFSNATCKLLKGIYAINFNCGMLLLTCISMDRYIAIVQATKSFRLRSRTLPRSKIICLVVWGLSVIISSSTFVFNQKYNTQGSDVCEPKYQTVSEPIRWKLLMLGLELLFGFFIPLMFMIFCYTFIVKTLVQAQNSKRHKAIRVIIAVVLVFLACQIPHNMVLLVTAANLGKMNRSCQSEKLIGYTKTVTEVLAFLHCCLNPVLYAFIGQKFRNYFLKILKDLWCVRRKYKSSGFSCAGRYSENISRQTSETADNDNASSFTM
Sequence of Glutathione-S-transferase (Q26513 whole entry): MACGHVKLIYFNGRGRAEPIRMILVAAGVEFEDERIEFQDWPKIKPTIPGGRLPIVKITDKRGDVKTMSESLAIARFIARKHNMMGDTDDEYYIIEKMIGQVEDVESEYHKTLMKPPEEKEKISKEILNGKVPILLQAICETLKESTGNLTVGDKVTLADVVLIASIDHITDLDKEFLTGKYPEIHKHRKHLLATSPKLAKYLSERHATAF
Sequence of X-box-binding protein 1 (P17861 whole entry): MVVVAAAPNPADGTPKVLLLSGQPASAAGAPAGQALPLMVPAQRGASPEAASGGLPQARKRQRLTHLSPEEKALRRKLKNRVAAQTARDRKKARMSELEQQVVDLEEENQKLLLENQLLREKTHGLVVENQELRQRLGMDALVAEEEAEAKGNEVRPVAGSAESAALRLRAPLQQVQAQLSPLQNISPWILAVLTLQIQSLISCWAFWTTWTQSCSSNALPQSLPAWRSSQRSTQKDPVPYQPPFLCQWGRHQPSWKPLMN
Sequence of G-protein coupled receptor 35 (Q9HC97 whole entry): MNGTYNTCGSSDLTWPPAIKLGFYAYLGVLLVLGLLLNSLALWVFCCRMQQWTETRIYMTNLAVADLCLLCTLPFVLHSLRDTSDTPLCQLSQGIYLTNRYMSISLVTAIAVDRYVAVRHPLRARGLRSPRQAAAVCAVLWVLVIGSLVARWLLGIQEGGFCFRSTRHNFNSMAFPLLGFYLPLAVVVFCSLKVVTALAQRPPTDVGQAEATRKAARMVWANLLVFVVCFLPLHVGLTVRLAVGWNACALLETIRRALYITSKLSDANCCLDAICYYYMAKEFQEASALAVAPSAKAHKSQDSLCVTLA
Sequence of Hexokinase HKDC1 (Q2TB90 whole entry): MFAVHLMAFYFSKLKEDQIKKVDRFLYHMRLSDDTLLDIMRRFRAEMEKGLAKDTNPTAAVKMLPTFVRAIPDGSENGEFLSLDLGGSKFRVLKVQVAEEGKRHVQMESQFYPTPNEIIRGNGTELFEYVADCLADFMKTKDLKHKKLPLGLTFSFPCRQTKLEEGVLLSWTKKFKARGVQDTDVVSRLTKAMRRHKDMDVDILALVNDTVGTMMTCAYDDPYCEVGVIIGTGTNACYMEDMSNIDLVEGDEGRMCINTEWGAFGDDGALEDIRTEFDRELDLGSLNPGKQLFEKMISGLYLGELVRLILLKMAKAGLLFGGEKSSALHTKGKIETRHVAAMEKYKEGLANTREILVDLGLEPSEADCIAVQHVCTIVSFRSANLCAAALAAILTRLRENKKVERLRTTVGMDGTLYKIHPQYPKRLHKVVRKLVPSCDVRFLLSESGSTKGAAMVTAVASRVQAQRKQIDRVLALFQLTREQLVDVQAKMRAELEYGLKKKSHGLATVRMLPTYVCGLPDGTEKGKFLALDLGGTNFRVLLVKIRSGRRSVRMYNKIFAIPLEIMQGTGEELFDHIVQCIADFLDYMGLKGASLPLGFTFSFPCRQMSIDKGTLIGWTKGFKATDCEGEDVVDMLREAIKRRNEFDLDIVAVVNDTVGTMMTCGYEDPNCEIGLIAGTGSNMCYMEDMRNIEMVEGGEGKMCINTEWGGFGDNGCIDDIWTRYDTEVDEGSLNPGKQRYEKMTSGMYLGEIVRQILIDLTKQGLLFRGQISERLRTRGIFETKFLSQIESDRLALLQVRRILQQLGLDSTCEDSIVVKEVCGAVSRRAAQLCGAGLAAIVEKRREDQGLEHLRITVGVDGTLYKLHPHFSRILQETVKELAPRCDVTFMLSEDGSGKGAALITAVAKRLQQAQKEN

Question: Which results are given for `CC(C)c1ccc(N2C(=O)/C(=C/N(C)C)SC2=S)cc1`?
Answer: EC50 [1]: 57 µM (active); EC50 [2]: 5.29 µM (active); IC50 [3]: 0.835 µM (active); EC50 [4]: 3.85 µM (active)

Question: For `CC(C)Cc1ccc(C(C)C(=O)Nc2nccs2)cc1` (stereo not given), which “Absolute IC50 (XBP1)” value [5] is on record?
Answer: 10 µM

Question: For `O=C1C(CO)=C(CO)C(=O)c2c(O)ccc(O)c21`, which IC50 [6] is on record?
Answer: 15.2 µM (active)

Question: And the CC50 [7]?
Answer: 25.3 µM (active)

Question: What about the IC50 [8] of the same compound?
Answer: > 100 µM (active)

Question: Which IC50 [9] does the source give for `CCN1CCC(O)(/C=C/c2ccc(C)cc2)C(C(=O)/C=C/c2ccc(C)cc2)C1` (stereo not given) here?
Answer: 22.8 µM (inactive)

Question: And the IC50 [10]?
Answer: > 66.6 µM (inactive)
